# Laboratory results published in patent publication US7056654B2, “Screening assay for inhibitors of human cytochrome P-450” (SmithKline Beecham Corporation, priority 1999, dated 2006).
# Target: T1, CYP2C8 (Homo sapiens, UniProt P10632)
# T1 sequence (P10632 1-490): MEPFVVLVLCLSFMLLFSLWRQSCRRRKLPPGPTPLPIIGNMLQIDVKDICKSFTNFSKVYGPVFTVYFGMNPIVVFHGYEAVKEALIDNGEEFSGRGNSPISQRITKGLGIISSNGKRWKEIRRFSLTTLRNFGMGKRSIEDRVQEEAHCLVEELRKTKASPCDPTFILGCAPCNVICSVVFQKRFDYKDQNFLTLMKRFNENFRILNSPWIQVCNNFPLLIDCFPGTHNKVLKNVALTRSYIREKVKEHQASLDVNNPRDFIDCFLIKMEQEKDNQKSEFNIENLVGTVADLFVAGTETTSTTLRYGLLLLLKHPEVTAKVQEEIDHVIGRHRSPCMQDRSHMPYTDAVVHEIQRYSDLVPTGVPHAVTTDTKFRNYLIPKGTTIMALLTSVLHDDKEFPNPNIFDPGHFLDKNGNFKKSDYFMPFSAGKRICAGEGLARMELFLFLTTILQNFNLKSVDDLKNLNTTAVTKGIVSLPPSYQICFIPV
# Conditions: pH 7.4
# Experimental: Assay Methodology for CYP2C8
# • 400 μM diethoxyfluorescein, (i.e. 0.155 mg/mL in acetonitrile)—store at approx. −20° C. in the dark • 2% (w/v) NaHCO3—store at approx. 4° C. • 50 mM potassium phosphate buffer, pH 7.4
# Freshly prepared cofactor solution:—approx. the following per mL of 2% (w/v) NaHCO3 • 1.7 mg NADP, monosodium salt • 7.8 mg glucose-6-phosphate, monosodium salt • 6 Units glucose-6-phosphate dehydrogenase, Type VII from Bakers Yeast Method: • 1) Pre-warm the plate reader oven to 37° C. and pre-warm the lamp for at least 10 minutes. • 2) Mix 2.5 μL of 400 µM diethoxyfluorescein, 5 μL (50 μg) CYP2C8 microsomal protein and 212.5 μL buffer per incubate (giving 4 µM diethoxyfluorescein and 200 μg/mL protein final concentration). • 3) To each well of a 96-well plate add 220 µL of incubation mix and 5 μL of test compound solution (or 5 μL of appropriate solvent for control wells—methanol, DMSO or acetonitrile may be used). • 4) Pre-incubate the multi-well plate in the plate reader at 37° C. for 5 minutes. Pre-warm the cofactor solution at 37° C. for 5 minutes. • 5) Add 25 μL cofactor solution to each well and scan with an excitation wavelength of 485 nm and an emission wavelength of 530 nm with a gain of 80. Scan for 10 cycles at 1 minute intervals.
smiles,measurement,value
O=c1c(O)c(-c2ccc(O)c(O)c2)oc2cc(O)cc(O)c12 [quercitin],IC50,3 µM
